Measurements published in patent US4988517A, “Method and composition for inhibiting colon carcinogenesis” (American Health Foundation, priority 1988, dated 1991).

Experiments:
[1] = cited from earlier work
[2] = system: azoxymethane-induced colon tumors; assay: AOM-induced colon tumor incidence and multiplicity (initiation phase feeding); type: in vivo, male F344 rats
From the text: (§1) Experimental Procedure. Male F344 rats received at weaning were quarantined for 10 days and given access to AIN-76A semipurified diet (control diet). They were then be randomly allocated by weight to one of three dietary groups (control diet and 25 ppm BSC and 25 ppm benzylthiocyanate ("BTC") diets). […] Therefore one of our goals was to compare BSC with its sulfur analog BTC. Each dietary group was divided into AOM-treated (27 animals per subgroup) and vehicle-treated (12 animals per subgroup) subgroups and housed in plastic cages with filter tops in the animal holding room under controlled environmental conditions.
(§2) Beginning at 5 wk of age, groups of rats fed the control diet were transferred to diets containing 25 ppm BSC or 25 ppm BTC. At 7 wk of age, the animals in each group, except the vehicle-treated controls, received two weekly s.c. injections of AOM at a dose level of 15 mg/kg body weight/wk. Vehicle controls were treated with an equal volume of normal saline. One wk after AOM or saline treatment, animals receiving the BSC and BTC diets were transferred to the control diets and continued on this diet until the termination of the experiment. The 1-wk delay before transferring to control diet was to ensure complete metabolism and excretion of the carcinogen. The animals receiving the control diet continued on the same diet. The experiment was terminated 34 wk after the last AOM injection.
(§3) Both AOM-and vehicle-treated animals were sacrificed by CO2 euthanasia. Following laparotomy, the entire stomach, small intestine, and large intestine were resected and opened longitudinally, and the contents flushed with normal saline. The location, number, and size of the colon and small intestinal tumors were noted grossly under the dissection microscope. All other organs, including liver and kidneys, were also examined grossly for tumors. Tissues were fixed in 10% buffered formalin, embedded in paraffin blocks, and processed by routine histological methods with the use of eosin and hematoxylin stains.
(§4) Statistical Analysis. The data on tumor incidence were analyzed statistically by the x^2 method and Fischer's exact probability test, and tumor multiplicity was analyzed by Student's t test. Biochemical results were analyzed by Student's t test.
(§5) Using the above-identified procedures, a study was made of the effect of feeding benzylselenocyanate and its sulfur analogue, benzylthiocyanate, two (2) weeks before, during and until one (1) week after carcinogen administration (initiation phase) on intestinal carcinogenesis induced by azoxymethane (CAS: 25843-45-2) in male F344 rats.

[3] = system: non-selenium-dependent glutathione peroxidase; assay: Non-selenium-dependent glutathione peroxidase activity in tissues of rats fed the diets; type: in vivo, male F344 rats; conditions: among the dietary groups
Protocol: (§6) Body weights were recorded weekly until the animals reach 16 wk of age and then every 4 wk. Six vehicle-treated animals randomly chosen from each dietary group while they were consuming experimental and control diets were used for tissue and blood plasma glutathione peroxidase analysis.
Biochemical Determination. For the determination of tissue and blood plasma glutathione peroxidase activity, 6 vehicle-treated animals from each dietary group, while the animals were on experimental and control diets, were used. Before sacrificing the animals, blood was obtained under ether anesthesia by cardiac puncture with a syringe. They were then decapitated,and liver, kidneys, small intestine, and colon were rapidly removed. The liver was perfused with ice-cold normal saline. […]
Glutathione peroxidase activity was determined spectrophotometrically according to a modification of the enzyme-coupled assay procedure of Paglia and Valentine. […] Total glutathione peroxide was measured with cumene hydroperoxide as a substrate. Selenium-dependent glutathione peroxide was measured with tert-butyl hydroperoxide. […] Absorbance was measured at 340 nm, and activity was measured from the slope of the lines as mol NADPH oxidized/min/mg protein. […] Protein concentration in the cytosol fraction was measured by the method of Lowry et al. with bovine serum albumin as standard.

[4] = Body weights of male F344 rats fed the experimental diets; type: in vivo; conditions: for Body wt, Initial (Wk 0) / Body wt, wk 4 / Body wt, wk 8 / Body wt, wk 16 / Body wt, wk 22 / Body wt, wk 30 / Body wt, wk 37 (at termination): 25 ppm in diet, Mean ± SD
From the text: as §1, §2, §6

[5] = system: azoxymethane-induced metastasis; assay: AOM-induced metastasis; type: in vivo, male F344 rats
From the text: as §1, §2, §3

[6] = General toxicity observation in rats fed the diets; type: in vivo, male F344 rats; conditions: 25 ppm in diet
From the text: as §1, §2, §6

[7] = system: carcinogenesis induced by chemicals; conditions: experimental animals; cited from earlier work
[8] = system: azoxymethane-induced ear duct tumors; assay: AOM-induced ear duct tumor incidence; type: in vivo, male F344 rats; conditions: 25 ppm in diet
From the text: as §1, §2
as §3, with “Tissues were fixed in 10% buffered formalin, embedded in paraffin blocks, and processed by routine histological methods with the use of eosin and hematoxylin stains.” left out
as §4

[9] = system: azoxymethane-induced small intestinal tumors; assay: AOM-induced small intestinal tumor incidence and multiplicity; type: in vivo, male F344 rats
From the text: as §1, §2, §3, §4, §5

[10] = system: selenium-dependent glutathione peroxidase; assay: Selenium-dependent glutathione peroxidase activity in tissues of rats fed the diets; type: in vivo, male F344 rats
Protocol: as §6
Biochemical Determination. For the determination of tissue and blood plasma glutathione peroxidase activity, 6 vehicle-treated animals from each dietary group, while the animals were on experimental and control diets, were used. Before sacrificing the animals, blood was obtained under ether anesthesia by cardiac puncture with a syringe. They were then decapitated,and liver, kidneys, small intestine, and colon were rapidly removed. The liver was perfused with ice-cold normal saline. The small intestine and colon were slit open longitudinally and freed from all the contents, and the mucosa was scraped with a microscope glass slide. The liver and kidneys were trimmed free of connective tissue, minced with scissors, and homogenized for 10 s in 3 volumes of buffer, pH 7.3 (0.25 sucrose-10 mM EDTA-50 mM potassium phosphate) using a Brinkman Polytron at low speed. The colonic and small intestinal mucosal scrapings were immediately placed into 3 volumes of the same buffer and homogenized similarly. The homogenates were centrifuged in a Sorvall RC-2B centrifuge at 10,000×g, 4° C., for 20 min. The supernatant was centrifuged in a Beckman Ultracentrifuge at 100,000×g, 4° C., for 1 h. The resulting cytosol fraction was used for determination of glutathione peroxidase activity and protein.
Glutathione peroxidase activity was determined spectrophotometrically according to a modification of the enzyme-coupled assay procedure of Paglia and Valentine. The reaction mixture consisted of 50 mM potassium phosphate buffer (pH 7.0), 1 mM EDTA, 0.2 mM NADPH, 1 enzyme unit/ml oxidized glutathione-reductase, 1 mM glutathione, and 1.5 mM cumene hydroperoxide in a total volume of 1 ml. The cytosol was added to the above mixture and allowed to incubate 5 min. at room temperature. Total glutathione peroxide was measured with cumene hydroperoxide as a substrate. Selenium-dependent glutathione peroxide was measured with tert-butyl hydroperoxide. The reaction was started with the addition of substrate solution. Absorbance was measured at 340 nm, and activity was measured from the slope of the lines as mol NADPH oxidized/min/mg protein. Blank reactions without cytosol were run simultaneously. Protein concentration in the cytosol fraction was measured by the method of Lowry et al. with bovine serum albumin as standard.
as §4

[11] = 25 ppm in diet 2 wk before to 1 wk after AOM
[12] = 25 ppm in diet, 27 (BSC) or 26 (BTC) animals/group
[13] = 25 ppm in diet 5 wk, Mean ± SE (n = 6)

[Se] [selenium]
Reproductive and teratogenic effects ([1]; animals and humans): Toxic reproductive and teratogenic effects | Toxic chronic feeding level ([1]; chronic feeding, animals): 5 to 10 ppm

N#CSCc1ccccc1 [BTC, benzylthiocyanate, reference compound]
Colon tumor incidence, Adenocarcinoma [2, 11]: 31 % of animals with tumors | Colon tumor incidence, Adenoma [2, 11]: 62 % of animals with tumors | Colon tumor incidence, Total (adenomas plus adenocarcinomas) [2, 11]: 69 % of animals with tumors | Number of animals with colon tumors, Adenocarcinoma [2, 12]: 8 number of animals | Number of animals with colon tumors, Adenoma [2, 12]: 16 number of animals | Number of animals with colon tumors, Total [2, 12]: 18 number of animals | Colon tumor multiplicity, Adenocarcinoma ([2]; 25 ppm in diet, Mean ± SD): 0.35 ± 0.4 no. of tumors/animals | Colon tumor multiplicity, Adenoma ([2]; 25 ppm in diet, Mean ± SD): 1.27 ± 1.3 no. of tumors/animals | Colon tumor multiplicity, Total ([2]; 25 ppm in diet, Mean ± SD): 1.62 ± 1.3 no. of tumors/animals | Number of tumors per group, colon Adenocarcinoma ([2]; 25 ppm in diet, in parentheses): 9 number of tumors per group | Incidence of total colon tumors (in words) ([2]; vs control diet): no differences in colon tumor incidences between the animals fed the control diet and BTC diet | Non-selenium-dependent glutathione peroxidase activity (in words) [3]: no differences in the activity of non-selenium-dependent glutathione peroxidase activity among the dietary groups | Body weights of animals fed experimental vs control diets ([4]; AOM or vehicle treated, in words): comparable | Body wt, Initial (Wk 0) ([4]; AOM treated): 40 ± 3 g | Body wt, wk 4 ([4]; AOM treated): 180 ± 10 g | Body wt, wk 8 ([4]; AOM treated): 281 ± 18 g | Body wt, wk 16 ([4]; AOM treated): 356 ± 21 g | Body wt, wk 22 ([4]; AOM treated): 394 ± 22 g | Body wt, wk 30 ([4]; AOM treated): 432 ± 24 g | Body wt, wk 37 (at termination) ([4]; AOM treated): 459 ± 19 g | Body wt, Initial (Wk 0) ([4]; Vehicle treated): 40 ± 3 g | Body wt, wk 4 ([4]; Vehicle treated): 182 ± 10 g | Body wt, wk 8 ([4]; Vehicle treated): 286 ± 18 g | Body wt, wk 16 ([4]; Vehicle treated): 362 ± 21 g | Body wt, wk 22 ([4]; Vehicle treated): 406 ± 22 g | Body wt, wk 30 ([4]; Vehicle treated): 449 ± 24 g | Body wt, wk 37 (at termination) ([4]; Vehicle treated): 470 ± 24 g | No. of animals with metastasis ([5]; 25 ppm in diet, AOM treated): 0 No. of animals | AOM-induced metastasis (in words) ([5]; several organs): none of the animals in BSC and BTC diet groups developed metastasis | Death after AOM treatment ([6]; 2 wk after AOM treatment): One | Evidence of toxicity in animals fed the diet [6]: no evidence of toxicity | Inhibition of chemically induced carcinogenesis [7]: inhibitor of carcinogenesis induced by chemicals in experimental animals | Number of animals with ear duct tumors ([8]; 27 (BSC) or 26 (BTC) animals/group): 5 animals | % of animals with ear duct tumors ([8]; AOM treated): 19 % of animals | Small intestinal tumor incidence, Adenocarcinoma [9, 11]: 38 % of animals with tumors | Small intestinal tumor incidence, Adenoma [9, 11]: 12 % of animals with tumors | Small intestinal tumor incidence, Total [9, 11]: 38 % of animals with tumors | Number of animals with small intestinal tumors, Adenocarcinoma [9, 12]: 10 number of animals | Number of animals with small intestinal tumors, Adenoma [9, 12]: 3 number of animals | Number of animals with small intestinal tumors, Total [9, 12]: 10 number of animals | Small intestinal tumor multiplicity, Adenocarcinoma ([9]; 25 ppm in diet, Mean ± SD): 0.34 0.6 no. of tumors/animal | Small intestinal tumor multiplicity, Adenoma ([9]; 25 ppm in diet, Mean ± SD): 0.12 0.3 no. of tumors/animal | Small intestinal tumor multiplicity, Total ([9]; 25 ppm in diet, Mean ± SD): 0.46 0.6 no. of tumors/animal | Selenium-dependent glutathione peroxidase activity, Kidney [10, 13]: 0.64 0.30 μmol NADPH oxidized/min/mg protein | Selenium-dependent glutathione peroxidase activity, Liver [10, 13]: 1.90 0.66 μmol NADPH oxidized/min/mg protein | Selenium-dependent glutathione peroxidase activity, Plasma [10, 13]: 0.69 0.16 μmol NADPH oxidized/min/mg protein | Selenium-dependent glutathione peroxidase activity, Colon ([10]; 25 ppm in diet 5 wk, colonic mucosa, Mean ± SE (n = 6)): 0.23 0.06 μmol NADPH oxidized/min/mg protein | Selenium-dependent glutathione peroxidase activity, Small intestine ([10]; 25 ppm in diet 5 wk, small intestinal mucosa, Mean ± SE (n = 6)): 0.20 0.10 μmol NADPH oxidized/min/mg protein | Selenium-dependent glutathione peroxidase activity (in words) ([10]; liver and plasma): not affected
